Patent US5747447A, “Stable polypeptide composition” (COR Therapeutics, priority 1995, dated 1998)
*1 amine or outer side, *2 acyl side, *3 side chain or, on linkers, in order; H or OH if unused. Where a SMILES comes first, the peptide text is derived from it. Bridges are numbered along the chain shown (N, C = ends). [ ]: non-standard residue; d: D form. The star is where a group is joined. Phe(4-NO2) = N[C@@H](Cc1ccc([N+](=O)[O-])cc1)C(=O)O; X1 = N=C(NCCCC[C@H](N[*:1])C(=O)[*:2])c1ccccc1; X2 = CC(=N)NCCCC[C@H](N[*:1])C(=O)[*:2]; NMeR = CN[C@@H](CCCNC(=N)N)C(=O)O; NMeF = CN[C@@H](Cc1ccccc1)C(=O)O; hArg = N=C(N)NCCCC[C@H](N)C(=O)O; dPen = CC(C)(S)[C@@H](N)C(=O)O; Pen = CC(C)(S)[C@H](N)C(=O)O; Pip = O=C(O)[C@@H]1CCCCN1; Orn = NCCC[C@H](N)C(=O)O; Thz = O=C(O)[C@@H]1CSCN1; Aib = CC(C)(N)C(=O)O; βAla = NCCC(=O)O; Mpa = O=C(O)CCS; Sar = CNCC(=O)O; For = O=C*

What follows are compounds tested against ADP-induced human platelet aggregation (Homo sapiens, UniProt P05106+P08514) (assay: standard aggregation inhibition assay (ADP-induced human platelet aggregation)). Settings: ADP-induced human platelet aggregation; read-out: Appr, IC50.
Sequence of ADP-induced human platelet aggregation (P08514 32-1039): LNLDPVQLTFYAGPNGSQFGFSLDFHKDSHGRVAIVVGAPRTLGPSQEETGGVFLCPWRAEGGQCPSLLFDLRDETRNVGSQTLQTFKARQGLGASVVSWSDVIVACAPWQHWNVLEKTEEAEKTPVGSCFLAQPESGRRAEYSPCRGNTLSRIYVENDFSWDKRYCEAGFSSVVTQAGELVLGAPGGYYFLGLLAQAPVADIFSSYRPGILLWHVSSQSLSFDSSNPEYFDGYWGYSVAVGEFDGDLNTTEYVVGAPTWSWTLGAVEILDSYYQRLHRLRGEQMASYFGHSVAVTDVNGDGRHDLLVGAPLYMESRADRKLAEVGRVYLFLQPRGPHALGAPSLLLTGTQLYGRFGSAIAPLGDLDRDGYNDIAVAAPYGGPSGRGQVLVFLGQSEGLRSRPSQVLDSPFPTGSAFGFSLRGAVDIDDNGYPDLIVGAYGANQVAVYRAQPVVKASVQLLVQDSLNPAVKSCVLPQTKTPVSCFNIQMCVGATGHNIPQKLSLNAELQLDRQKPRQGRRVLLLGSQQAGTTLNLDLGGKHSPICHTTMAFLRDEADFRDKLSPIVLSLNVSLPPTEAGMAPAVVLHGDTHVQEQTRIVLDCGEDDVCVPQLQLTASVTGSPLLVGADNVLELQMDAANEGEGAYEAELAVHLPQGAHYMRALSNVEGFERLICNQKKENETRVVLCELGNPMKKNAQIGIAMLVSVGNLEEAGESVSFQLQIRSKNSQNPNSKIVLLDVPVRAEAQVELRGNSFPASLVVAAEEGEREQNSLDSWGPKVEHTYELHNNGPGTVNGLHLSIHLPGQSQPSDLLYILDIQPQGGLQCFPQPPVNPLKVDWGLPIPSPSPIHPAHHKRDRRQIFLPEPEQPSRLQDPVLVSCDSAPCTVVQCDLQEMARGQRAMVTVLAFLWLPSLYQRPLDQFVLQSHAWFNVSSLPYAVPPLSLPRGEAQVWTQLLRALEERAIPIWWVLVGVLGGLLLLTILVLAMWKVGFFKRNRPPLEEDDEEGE
Sequence of ADP-induced human platelet aggregation (P05106 27-788): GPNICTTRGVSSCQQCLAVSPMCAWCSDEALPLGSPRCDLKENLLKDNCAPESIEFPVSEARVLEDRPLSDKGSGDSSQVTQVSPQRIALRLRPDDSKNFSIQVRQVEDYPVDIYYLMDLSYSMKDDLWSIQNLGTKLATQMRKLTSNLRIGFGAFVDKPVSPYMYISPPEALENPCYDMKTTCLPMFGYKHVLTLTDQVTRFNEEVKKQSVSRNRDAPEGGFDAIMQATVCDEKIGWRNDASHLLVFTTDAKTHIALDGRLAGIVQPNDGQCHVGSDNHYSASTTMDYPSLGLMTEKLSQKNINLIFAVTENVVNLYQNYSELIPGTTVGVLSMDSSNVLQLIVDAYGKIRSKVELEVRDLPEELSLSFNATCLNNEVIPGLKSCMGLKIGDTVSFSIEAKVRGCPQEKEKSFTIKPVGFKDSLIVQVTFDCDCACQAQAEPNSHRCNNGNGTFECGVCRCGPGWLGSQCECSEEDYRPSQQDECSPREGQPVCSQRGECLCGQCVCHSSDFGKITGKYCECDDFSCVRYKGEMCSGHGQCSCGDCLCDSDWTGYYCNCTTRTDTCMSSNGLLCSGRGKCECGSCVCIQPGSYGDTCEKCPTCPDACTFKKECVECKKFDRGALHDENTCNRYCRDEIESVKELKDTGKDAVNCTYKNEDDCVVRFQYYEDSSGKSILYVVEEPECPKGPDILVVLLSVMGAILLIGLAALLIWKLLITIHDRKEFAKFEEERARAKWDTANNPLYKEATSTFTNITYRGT
Assay type: cell-based
Description: 2. Standard assays directly applied to platelet aggregation, such as those described by Gann, Z.-R., et al., J Biol Chem (1988) 263:19827-19832; Huang, T. F., et al., J Biol Chem (1987) 262:16157-16163; Biochemistry (1989) 28:661-666, cited above and incorporated herein by reference;

Compound | IC50 [nM]
CC1(C)SSCCC(=O)N[C@@H](CCCCN)C(=O)NCC(=O)N[C@@H](CC(=O)O)C(=O)N[C@@H]1C(N)=O [Analog #9, Mpr-K-G-D-Pen-NH2] ([Mpa]KGD[Pen]-NH2; disulfide 1-5) | 25000
CC(=O)N[C@H]1CSSC(C)(C)[C@@H](C(N)=O)NC(=O)[C@H](CC(=O)O)NC(=O)CNC(=O)[C@H](CCCNC(=N)N)NC1=O [Analog #11, Acetyl-C-R-G-D-Pen-NH2] (Ac-CRGD[Pen]-NH2; disulfide 1-5) | 5000
NCCC[C@@H]1NC(=O)[C@@H](N)CSSC[C@@H](C(N)=O)NC(=O)[C@@H]2CCCN2C(=O)[C@H](Cc2c[nH]c3ccccc23)NC(=O)[C@H](CC(=O)O)NC(=O)CNC1=O [Analog #36, C-Orn-G-D-W-P-C-NH2] (H-C[Orn]GDWPC-NH2; disulfide 1-7) | 150000 to 200000
C[C@H]1NC(=O)[C@H](CCCCN)NC(=O)[C@@H](N)CSSC[C@@H](C(N)=O)NC(=O)[C@@H]2CCCN2C(=O)[C@H](Cc2c[nH]c3ccccc23)NC(=O)[C@H](CC(=O)O)NC1=O [Analog #38, C-K-A.dagger.-D-W-P-C-NH2] (H-CK[dA]DWPC-NH2; disulfide 1-7) | > 200000
CN1CC(=O)N[C@H](C(N)=O)CSSC[C@H](N)C(=O)N[C@@H](CCCCN)C(=O)NCC(=O)N[C@@H](CC(=O)O)C(=O)N[C@@H](Cc2c[nH]c3ccccc23)C1=O [Analog #39, C-K-G-D-W-(Sar)-C-NH2] (H-CKGDW[Sar]C-NH2; disulfide 1-7) | 5000
NC(=O)[C@@H]1CSSC[C@H](N)C(=O)N[C@@H](CCCCNC=O)C(=O)NCC(=O)N[C@@H](CC(=O)O)C(=O)N[C@@H](Cc2c[nH]c3ccccc23)C(=O)N2CCC[C@H]2C(=O)N1 [Analog #40, C-K(Formyl)-G-D-W-P-C-NH2] (H-CK(For)GDWPC-NH2; disulfide 1-7) | > 200000
CN1CC(=O)N[C@@H](CC(=O)O)C(=O)N[C@@H](Cc2c[nH]c3ccccc23)C(=O)N2CCC[C@H]2C(=O)N[C@H](C(N)=O)CSSC[C@H](N)C(=O)N[C@@H](CCCCN)C1=O [Analog #43, C-K-(Sar)-D-W-P-C-NH2] (H-CK[Sar]DWPC-NH2; disulfide 1-7) | 50000
NCCCC[C@@H]1NC(=O)[C@@H](N)CSSC[C@@H](C(N)=O)NC(=O)[C@@H]2CCCN2C(=O)[C@H](Cc2ccc([N+](=O)[O-])cc2)NC(=O)[C@H](CC(=O)O)NC(=O)CNC1=O [Analog #44, C-K-G-D-(4-NO2 -Phe)-P-C-NH2] (H-CKGD[Phe(4-NO2)]PC-NH2; disulfide 1-7) | 75000
CN1C(=O)[C@H](CC(=O)O)NC(=O)CNC(=O)[C@H](CCCCN)NC(=O)[C@@H](N)CSSC[C@@H](C(N)=O)NC(=O)[C@@H]2CCCN2C(=O)[C@@H]1Cc1ccccc1 [Analog #45, C-K-G-D-(NMePhe)-P-C-NH2] (H-CKGD[NMeF]PC-NH2; disulfide 1-7) | > 200000
CC1(C)SSCCC(=O)N[C@@H](CCCCN)C(=O)NCC(=O)N[C@@H](CC(=O)O)C(=O)N[C@H](Cc2c[nH]c3ccccc23)C(=O)N2CCC[C@H]2C(=O)N[C@@H]1C(N)=O [Analog #50, Mpr-K-G-D-W.dagger.-P-Pen-NH2] ([Mpa]KGD[dW]P[Pen]-NH2; disulfide 1-7) | > 200000
CC1(C)SSCCC(=O)N[C@@H](CCCCN)C(=O)NCC(=O)N[C@@H](CC(=O)O)C(=O)N[C@@H](Cc2c[nH]c3ccccc23)C(=O)N2CCC[C@H]2C(=O)N[C@@H]1C(N)=O [Analog #51, Mpr-K-G-D-W-P-Pen-NH2] ([Mpa]KGDWP[Pen]-NH2; disulfide 1-7) | 750
CC1(C)SSCCC(=O)N[C@@H](CCCCN)C(=O)NCC(=O)N[C@@H](CC(=O)O)C(=O)N[C@@H](Cc2c[nH]c3ccccc23)C(=O)N2CCC[C@H]2C(=O)N[C@H]1C(N)=O [Analog #52, Mpr-K-G-D-W-P-Pen.dagger.-NH2] ([Mpa]KGDWP[dPen]-NH2; disulfide 1-7) | 5000
CC1(C)SSCCC(=O)N[C@@H](CCCCN)C(=O)NCC(=O)N[C@@H](CC(=O)O)C(=O)N[C@@H](Cc2c[nH]c3ccccc23)C(=O)N2CCC[C@@H]2C(=O)N[C@@H]1C(N)=O [Analog #53, Mpr-K-G-D-W-P.dagger.-Pen-NH2] ([Mpa]KGDW[dP][Pen]-NH2; disulfide 1-7) | > 200000
CC1(C)SSCCC(=O)N[C@@H](CCCCN)C(=O)NCC(=O)N[C@H](CC(=O)O)C(=O)N[C@@H](Cc2c[nH]c3ccccc23)C(=O)N2CCC[C@H]2C(=O)N[C@@H]1C(N)=O [Analog #54, Mpr-K-G-D.dagger.-W-P-Pen-NH2] ([Mpa]KG[dD]WP[Pen]-NH2; disulfide 1-7) | > 100000
NCCCC[C@@H]1NC(=O)CCSSC[C@@H](C(N)=O)NC(=O)[C@@H]2CSCN2C(=O)[C@H](Cc2c[nH]c3ccccc23)NC(=O)[C@H](CC(=O)O)NC(=O)CNC1=O [Analog #55, Mpr-K-G-D-W-(Thz)-C-NH2] ([Mpa]KGDW[Thz]C-NH2; disulfide 1-7) | 2000
CC1(C)SSCCC(=O)N[C@@H](CCCCN)C(=O)NCC(=O)N[C@@H](CC(=O)O)C(=O)N[C@@H](Cc2c[nH]c3ccccc23)C(=O)N2CCCC[C@H]2C(=O)N[C@@H]1C(N)=O [Analog #59, Mpr-K-G-D-W-(Pip)-Pen-NH2] ([Mpa]KGDW[Pip][Pen]-NH2; disulfide 1-7) | 1000
NCCCC[C@@H]1NC(=O)CCSSC[C@H](C(N)=O)NC(=O)[C@@H]2CCCN2C(=O)[C@H](Cc2c[nH]c3ccccc23)NC(=O)[C@H](CC(=O)O)NC(=O)CNC1=O [Analog #61, Mpr-K-G-D-W-P-C.dagger.-NH2] ([Mpa]KGDWP[dC]-NH2; disulfide 1-7) | 15000
CC1(C)SSCCC(=O)N[C@H](CCCCN)C(=O)NCC(=O)N[C@@H](CC(=O)O)C(=O)N[C@@H](Cc2c[nH]c3ccccc23)C(=O)N2CCC[C@H]2C(=O)N[C@@H]1C(N)=O [Analog #62, Mpr-K.dagger.-G-D-W-P-Pen-NH2] ([Mpa][dK]GDWP[Pen]-NH2; disulfide 1-7) | 2500
CC1(C)SSCCC(=O)N[C@@H](CCCCNC(=N)N)C(=O)NCC(=O)N[C@@H](CC(=O)O)C(=O)N[C@@H](Cc2c[nH]c3ccccc23)C(=O)N2CCC[C@H]2C(=O)N[C@@H]1C(N)=O [Analog #63, Mpr-(Har)-G-D-W-P-Pen-NH2] ([Mpa][hArg]GDWP[Pen]-NH2; disulfide 1-7) | 100
CC(=N)NCCCC[C@@H]1NC(=O)CCSSC[C@@H](C(N)=O)NC(=O)[C@@H]2CCCN2C(=O)[C@H](Cc2c[nH]c3ccccc23)NC(=O)[C@H](CC(=O)O)NC(=O)CNC1=O [Analog #64, Mpr-(Acetimidyl-Lys)-G-D-W-P-C-NH2] ([Mpa][X2]GDWPC-NH2; disulfide 1-7) | 250
CC(=N)NCCCC[C@@H]1NC(=O)CCSSC(C)(C)[C@@H](C(N)=O)NC(=O)[C@@H]2CCCN2C(=O)[C@H](Cc2c[nH]c3ccccc23)NC(=O)[C@H](CC(=O)O)NC(=O)CNC1=O [Analog #69, Mpr-(Acetimidyl-Lys)-G-D-W-P-Pen-NH2] ([Mpa][X2]GDWP[Pen]-NH2; disulfide 1-7) | 500
N=C(NCCCC[C@@H]1NC(=O)CCSSC[C@@H](C(N)=O)NC(=O)[C@@H]2CCCN2C(=O)[C@H](Cc2c[nH]c3ccccc23)NC(=O)[C@H](CC(=O)O)NC(=O)CNC1=O)c1ccccc1 [Analog #70, Mpr-(Phenylimidyl-Lys)-G-D-W-P-C-NH2] ([Mpa][X1]GDWPC-NH2; disulfide 1-7) | 500
CN1CC(=O)N[C@@H](CC(=O)O)C(=O)N[C@@H](Cc2c[nH]c3ccccc23)C(=O)N2CCC[C@H]2C(=O)N[C@H](C(N)=O)C(C)(C)SSCCC(=O)N[C@@H](CCCCNC(=N)N)C1=O [Analog #71, Mpr-Har-Sar-D-W-P-Pen-NH2] ([Mpa][hArg][Sar]DWP[Pen]-NH2; disulfide 1-7) | 2500
CC1(C)SSCCC(=O)N[C@@H](CCCCNC(=N)c2ccccc2)C(=O)NCC(=O)N[C@@H](CC(=O)O)C(=O)N[C@@H](Cc2c[nH]c3ccccc23)C(=O)N2CCC[C@H]2C(=O)N[C@@H]1C(N)=O [Analog #72, Mpr-(Phenylimidyl-Lys)-G-D-W-P-Pen-NH2] ([Mpa][X1]GDWP[Pen]-NH2; disulfide 1-7) | 500

Same assay, conditions: PAI activity, Example 15; read-out: Appr.IC20

Compound | IC20 [nM]
N=C(N)NCCCC[C@@H]1NC(=O)[C@@H]2CCCN2C(=O)CCSSC[C@@H](C(N)=O)NC(=O)[C@@H]2CCCN2C(=O)[C@H](Cc2c[nH]c3ccccc23)NC(=O)[C@H](CC(=O)O)NC(=O)CNC1=O [PAI 80, Mpr-P-Har-G-D-W-P-C-NH2] ([Mpa]P[hArg]GDWPC-NH2; disulfide 1-8) | 1290
N=C(N)NCCCC[C@@H]1NC(=O)CNC(=O)CCSSC[C@@H](C(N)=O)NC(=O)[C@@H]2CCCN2C(=O)[C@H](Cc2c[nH]c3ccccc23)NC(=O)[C@H](CC(=O)O)NC(=O)CNC1=O [PAI 81, Mpr-G-Har-G-D-W-P-C-NH2] ([Mpa]G[hArg]GDWPC-NH2; disulfide 1-8) | 7470
CC1(C)NC(=O)CCSSC[C@@H](C(N)=O)NC(=O)[C@@H]2CCCN2C(=O)[C@H](Cc2c[nH]c3ccccc23)NC(=O)[C@H](CC(=O)O)NC(=O)CNC(=O)[C@H](CCCCNC(=N)N)NC1=O [PAI 83, Mpr-Aib-Har-G-D-W-P-C-NH2] ([Mpa][Aib][hArg]GDWPC-NH2; disulfide 1-8) | 2200
CN1C(=O)CCSSC[C@@H](C(N)=O)NC(=O)[C@@H]2CCCN2C(=O)[C@H](Cc2c[nH]c3ccccc23)NC(=O)[C@H](CC(=O)O)NC(=O)CNC(=O)[C@H](CCCCNC(=N)N)NC(=O)[C@@H]1CCCNC(=N)N [PAI 84, Mpr-(N-Me-Arg)-Har-G-D-W-P-C-NH2] ([Mpa][NMeR][hArg]GDWPC-NH2; disulfide 1-8) | 250
C[C@H]1NC(=O)CCSSC[C@@H](C(N)=O)NC(=O)[C@@H]2CCCN2C(=O)[C@H](Cc2c[nH]c3ccccc23)NC(=O)[C@H](CC(=O)O)NC(=O)CNC(=O)[C@H](CCCCNC(=N)N)NC1=O [PAI 86, Mpr-A.dagger.-Har-G-D-W-P-C-NH2] ([Mpa][dA][hArg]GDWPC-NH2; disulfide 1-8) | 1150
N=C(N)NCCCC[C@@H]1NC(=O)CCNC(=O)CCSSC[C@@H](C(N)=O)NC(=O)[C@@H]2CCCN2C(=O)[C@H](Cc2c[nH]c3ccccc23)NC(=O)[C@H](CC(=O)O)NC(=O)CNC1=O [PAI 87, Mpr-(β-Ala)-Har-G-D-W-P-C-NH2] ([Mpa][βAla][hArg]GDWPC-NH2; disulfide 1-8) | 920
